# In patent US8435582B2, “Beverage preservative system containing Pimaricin-Povidone complex” (PepsiCo, Inc., priority 2009, dated 2013):
# Read-outs that look alike come from different tables or passages of the source.
# How the values were obtained:
# physchem = assay type: physicochemical
# Source text: (§1) A 2% fruit juice based non-carbonated beverage of pH 3.4 and about 12 Brix was formed by combining the following ingredients.
# (§2) The preparation of beverage was divided into two aliquots.
# [1] = test system: Byssochlamys fulva ATCC 10099; experiment: 16 week MIC of un-complexed Pimaricin in 2% juice beverage, mold spores; assay type: cell-based; settings: Paecilomyces fulvus, ATCC10099; beverage pH 3.4, 25° C., 20 spores/ml, spores from Potato Dextrose 25 °C; read-out: 16 week incubation MIC
# [2] = test system: Aspergillus niger isolate of Pepsi; experiment: as above; assay type: cell-based; settings: beverage pH 3.4, 25° C., 20 spores/ml, spores from Potato Dextrose 25 °C, read-out: 16 week incubation MIC
# Source text: as §1, §2
# (§3) The tubes were sealed in a manner that prohibits moisture evaporation.
# (§4) The mold spores employed were obtained from the following organisms. Aspergillus niger isolate of Pepsi; ATCC strain 90900 (Talaromyces spectabilis), ATCC strain 48441 (Pencillium galbrum), ATCC 24088 (Byssochlamys fulva), ATCC 96468 (Neosartorya fischeri) ATCC strain 96463 (Talaromyces flavus) and ATCC strain ATCC 10512 (Talaromyces flavus var. flavus). Each spore type was present at 20 spores per milliliter.
# [3] = test system: Neosartorya fischeri ATCC 96468; experiment: as above; assay type: cell-based; settings: Aspergillus fischeri, ATCC96468; beverage pH 3.4, 25° C., 20 spores/ml, spores from Potato Dextrose 25 °C; read-out: 16 week incubation MIC
# Source text: as §1, §2, §3, §4
# [4] = test system: Penicillium glabrum ATCC 48441; experiment: as above; assay type: cell-based; settings: ATCC48441, beverage pH 3.4, 25° C., 20 spores/ml, spores from Potato Dextrose 25 °C, read-out: 16 week incubation MIC
# Source text: as §1, §2, §3, §4
# [5] = test system: Talaromyces flavus var flavus ATCC 10512; experiment: as above; assay type: cell-based; settings: ATCC10512, beverage pH 3.4, 25° C., 20 spores/ml, spores from Potato Dextrose 25 °C, read-out: 16 week incubation MIC
# Source text: as §1, §2, §3, §4
# [6] = test system: Talaromyces spectabilis ATCC 90900; experiment: as above; assay type: cell-based; settings: Paecilomyces variotii, ATCC90900; beverage pH 3.4, 25° C., 20 spores/ml, spores from Potato Dextrose 25 °C; read-out: 16 week incubation MIC
# Source text: as §1, §2, §3, §4
# [7] = test system: Tataromyces flavus ATCC 96463; experiment: as above; assay type: cell-based; settings: Talaromyces flavus, ATCC96463; beverage pH 3.4, 25° C., 20 spores/ml, spores from Potato Dextrose 25 °C; read-out: 16 week incubation MIC
# Source text: as §1, §2, §3, §4
# [8] = test system: Brettanomyces Pepsi Isolate; experiment: Growth inhibitory effect of Pimaricin, beverage medium containing 5% DMSO; assay type: cell-based; settings: 2688 h, 5% DMSO beverage pH 3.4, 25° C., PDA, read-out: Observed MIC (16 week)
# Source text: as §1, §2
# (§5) The second aliquot of beverage is identical to the first aliquot except for the presence of pimaricin. It also contains 5% DMSO. […] The tubes were sealed in a manner that prohibits moisture evaporation.
# (§6) Yeast employed in the study are Zygosaccharomyces bisporus (ATCC 52407) Zygosaccharomyces bailii (ATCC 60484), Saccharomyces cerevisiae (Pepsi Isolate Y99), Brettanomyces (Pepsi Isolate Chemy 7UP), and Zygosaccharomyces (Pepsi Isolate Y2).
# (§7) The mold spores employed were obtained from the following organisms Paecilomyces variotii (Pepsi isolate D16), Penicillium camembertii (Pepsi isolate M3), (Talaromyces flavus var. flavus (ATCC 10512), Byssochlamys nieva (ATCC 36614), and Byssochlamys fulva ATCC 10099). Each spore type was present initially at 20 spores per milliliter of product. Spores for a couple of strains of mold (such as Byssochlamys nieva) were developed at both 25° C. on Potato Dextrose and 30° C. on Malt Extract in order to ensure some variation in the ratio of asci (ascospores) to conidiospores.
# [9] = test system: Byssochlamys fulva ATCC 10099; experiment: as above; assay type: cell-based; settings: Paecilomyces fulvus, ATCC10099, pH 3.4, 5% DMSO beverage pH 3.4, 25° C., read-out: Observed MIC (16 week)
# Source text: as §1, §2, §5, §6, §7
# [10] = test system: Byssochlamys nieva ATCC 36614; experiment: as above; assay type: cell-based; settings: 2688 h; 5% DMSO beverage pH 3.4, 25° C.; spores generated on PDA at 25 °C; read-out: Observed MIC (16 week)
# Source text: as §1, §2, §5, §6, §7
# [11] = test system: Paecilomyces variotii Pepsi Isolate; experiment: as above; assay type: cell-based; settings: pH 3.4, 5% DMSO beverage pH 3.4, 25° C., read-out: Observed MIC (16 week)
# Source text: as §1, §2, §5, §6, §7
# [12] = test system: Penicillium camembertii Pepsi Isolate; experiment: as above; assay type: cell-based; settings: pH 3.4, 5% DMSO beverage pH 3.4, 25° C., read-out: Observed MIC (16 week)
# Source text: as §1, §2, §5, §6, §7
# [13] = test system: Saccharomyces cerevisiae Pepsi Isolate; experiment: as above; assay type: cell-based; settings: 5% DMSO beverage pH 3.4, 25° C., PDA, read-out: Observed MIC (16 week)
# Source text: as §1, §2, §5, §6, §7
# [14] = test system: Talaromyces flavus var flavus ATCC 10512; experiment: as above; assay type: cell-based; settings: spores generated on PDA at 25 °C
# Source text: as §1, §2, §5, §6, §7
# [15] = test system: Zygosaccharomyces bailli ATCC 60484; experiment: as above; assay type: cell-based; settings: ATCC60484, 5% DMSO beverage pH 3.4, 25° C., PDA, read-out: Observed MIC (16 week)
# Source text: as §1, §2, §5, §6, §7
# [16] = test system: Zygosaccharomyces bailli Pepsi Isolate; experiment: as above; assay type: cell-based; settings: 5% DMSO beverage pH 3.4, 25° C., PDA, read-out: Observed MIC (16 week)
# Source text: as §1, §2, §5, §6, §7
# [17] = test system: Zygosaccharomyces bisporus ATCC 52407; experiment: as above; assay type: cell-based; settings: ATCC52407, 5% DMSO beverage pH 3.4, 25° C., PDA, read-out: Observed MIC (16 week)
# Source text: as §1, §2, §5, §6, §7
# mold fungi = experiment: Preservation of beverage product for 16 weeks, Pimaricin stand alone; assay type: cell-based; settings: Pimaricin as the only antimicrobial substance (stand alone)
# [18] = 25° C., pH approximately 6.4; cited from earlier work
# [19] = spores generated on MEA at 30 °C
# [20] = spores generated on PDA at 25 °C
smiles,measurement,setting,value
C[C@@H]1C/C=C/C=C/C=C/C=C/[C@H](O[C@@H]2O[C@H](C)[C@@H](O)[C@H](N)[C@@H]2O)C[C@@H]2O[C@](O)(C[C@@H](O)C[C@H]3O[C@@H]3/C=C/C(=O)O1)C[C@H](O)[C@H]2C(=O)O [Pimaricin],solubility,"physchem; 4 °C, pH 3.4, aqueous buffer, thermodynamic from solid, solubility limit in high acid beverage",10 µg/mL
same,solubility at 24 h,"physchem; 25 °C, pH 3.4, aqueous buffer, thermodynamic from solid, solubility limit in high acid beverage",20 µg/mL
same,solubility limit in high acid beverage,"physchem; 24 h, pH 3.4",about 20 mg/L
same,MIC,[1],16.9 µg/mL
same,MIC,[2],18.4 µg/mL
same,MIC,[3],> 20 µg/mL
same,MIC,[4],5.7 µg/mL
same,MIC,[5],> 20 µg/mL
same,MIC,[6],10.3 µg/mL
same,MIC,[7],> 20 µg/mL
same,MIC,[8],2.5 µg/mL
same,MIC,[9]; [19],7.9 µg/mL
same,MIC,[9]; [20],2 µg/mL
same,MIC,[10],46 µg/mL
same,MIC,[11]; [19],> 72 µg/mL
same,MIC,[11]; [20],58.3 µg/mL
same,MIC,[12]; [19],65 µg/mL
same,MIC,[12]; [20],6.4 µg/mL
same,MIC,[13],2.5 µg/mL
same,Observed MIC (16 week),"[14]; 5% DMSO beverage pH 3.4, 25° C.",>72 ppm
same,MIC,"[14]; Talaromyces flavus, ATCC10512, pH 3.4, 5% DMSO beverage pH 3.4, 25° C., read-out: Observed MIC (16 week)",72 µg/mL
same,MIC,[15],2.5 µg/mL
same,MIC,[16],2.5 µg/mL
same,MIC,[17],2.5 µg/mL
same,minimum initial concentration needed to preserve product for 16 weeks,mold fungi,280 mg Pimaricin per liter
same,solubility in pure water,[18],52 µg/mL
